# From patent US20050032863A1, “Method of treating or preventing central nervous system disorders with compounds having selectivity for the alpha 3 subunit of the benzodiazepine receptor” (priority 2003, published 2005)
# Assays:
# [1] = test system: dt^sz mutant Syrian golden hamsters; assay: Genetic hamster model of paroxysmal dystonia, triple stimulation; assay type: in vivo, Syrian golden hamster
# Experimental: Drug testing was performed at the maximal sensitivity of the hamsters for induction of dystonic attacks, i.e. between 30 and 40 days of age. Dystonic attacks were induced by a triple stimulation technique: The hamsters were taken from their home cage and placed on a balance (to determine body weight), were then injected i.p. with saline (control) or drug, and immediately placed individually in a new and empty plastic cage. Dystonic attacks started within a few minutes after placing the hamsters in the new plastic cage.
# The final stage persisted for two to five hours, but rapid recovery occurred thereafter.
# A first group of animals (n=8) was tested for ocurrence and severity of dystonic attacks at the age of 32-33 days after administration of vehicle (i.p.) as well as after performing the triple stimulation procedure as described above. Two or three days later, the same animals received E131-00139 i.p. and were again observed for 3 hours and again 2-3 days later the animals were re-tested after vehicle administration to serve as post dose control. […] The first stack represents the first hour of observation statring with drug administration, the second stack of bars represents the second hour of observation and the third stack the third hour.
# The first (open) bar represents the control response of the animals recorded 2-3 days prior to the drug test, the black bar represents the results obtained after drug administration and the third (gray) bar represents the post drug control tested 2-3 days after the drug administration. The pre-and post test was used to exclude that a reduction of severity of stages was only due to a reduction in sensitivity for the induction of dystonic attacks is age dependent.
# male Wistar rats = assay: Rat forced swim test; assay type: in vivo
# Experimental: All animals were treated with verum or vehicle three times: shortly after the habituation session (23 h), 5 and 1 h prior to testing. All drugs were administered orally with an application volume of 1 ml/kg.
# The animals were tested in a glass tank (23×30 cm, height 40 cm) filled to a depth of 28 cm with water at 22° C. (the animals could not touch the bottom). The glass tank was illuminated indirectly and was surrounded by dark brown shading walls (distance from the tank 20 cm) to prevent the view on the experimenter. The experiments were performed between 14:00 and 17:00 hours and the method was in general performed as described (Porsolt et al., 1979; Lucki, 1997).
# On the first experimental day, rats were gently placed in the water for a 15 min period of habituation. On removal from the water, they were placed in a standard plexiglass box, the floor covered with paper towels, under an infrared heater for 30 min to dry. The next day, they were once more placed gently in the glass tank and observed for 5 min. The behaviour of the animals was video-taped.
# Following the experiment the video tapes were analysed manually and the duration of the following behaviours was recorded: Immobility: floating and making only those movements necessary to keep the nose above the water. […] Climbing: when rats strongly move their forepaws in and out of the water, usually against the walls.
# [2] = test system: female Wistar rats, MK-801-induced stereotypies, hyperactivity and ataxia; assay: MK-801-induced psychosis-related behaviour and reversibility by flumazenil (Example 7); assay type: in vivo, rat; conditions: for effect on other stereotypies when flumazenil is added: 30 mg/kg p.o. + flumazenil 5 mg/kg
# Experimental: Apart from the haloperidol rats which received haloperidol 30 minutes and MK-801 10 minutes prior to the test, the other test groups received haloperidol, ELB139 or vehicle 60 minutes prior to test, saline or flumazenil 20 minutes prior to test and MK-801 10 minutes prior to test.
# The behaviour induced by the NMDA antagonist MK-801 is generally accepted as a rat model of psychosis. MK-801 induces stereotypies, hyperactivity and ataxia in rats after intraperitoneal administration.
# Locomotor activity of the rats is recorded by the MotiTest Apparatus (TSE, Bad Homburg, Germany). The test area consisted of a squared arena (45×45 cm) with protective plexiglass walls (20 cm of height) where rats could freely move. Horizontal movements were recorded by 32 infrared photocells arranged along the bottom of each wall of the arena. Vertical movements (rearings) were recorded by a horizontal row of 32 infrared photocells 12 cm above the floor. The following parameters were measured by the computer program “ActiMot” (TSE, Bad Homburg, Germany): • 1. active time [s] • 2. total distance travelled [m]
# Stereotypies, divided into stereotyped sniffing and other stereotypies, and ataxia are scored by the experimenter every five minutes for one hour (12 intervals) according to the method described by Andiné et al. (1999). The scores of the 12 intervals are added for each parameter.
# The day of experiment the female rats are placed in the laboratory and receive the test compound, the reference substance or vehicle at the appropriate time prior to test. […]
# At the beginning of the test the rats are placed in the centre of the squared arena of the MotiTest apparatus. Behaviour of the rats is recorded for one hour. After each run animals are removed and the boxes thoroughly cleaned and dried.
# [3] = 10 and 30 mg/kg p.o., 23, 5 and 1 h prior to testing
# [4] = 30 mg/kg p.o. + flumazenil 5 mg/kg i.p., second trial
smiles,measurement,setting,value
"O=C1N=C(N2CCCCC2)CN1c1ccc(Cl)cc1 [ELB139, 1-(4-chlorophenyl)-4-piperidinoimidazolin-2-one]",antidystonic activity,[1]; 5 mg/kg i.p.,still a significant antidystonic activity was present
same,tolerability and sedation,[1]; 10 mg/kg i.p.,well tolerated and no sedation was observed
same,severity of the dystonic attack,"[1]; 10 mg/kg i.p., total observation period 3 h",significantly reduced
same,activity following the return to the homecage (subjective observation),male Wistar rats; 30 mg/kg p.o.,moderate hypoactivity
same,climbing time,male Wistar rats; 30 mg/kg p.o.,slight but not significant decrease
same,duration of swimming,"male Wistar rats; 30 mg/kg p.o., 23, 5 and 1 h prior to testing",increased
same,tolerability,male Wistar rats; 10 and 30 mg/kg p.o.,well tolerated
same,climbing behaviour,male Wistar rats; [3],not changed
same,time spent immobile,male Wistar rats; [3],had no effect
same,effect on distance travelled when flumazenil is added,"[2]; 30 mg/kg p.o. + flumazenil 5 mg/kg i.p., all trials and sum",significantly reversed
same,effect on activity when flumazenil is added,"[2]; 30 mg/kg p.o. + flumazenil 5 mg/kg i.p., both tests and sum",significantly reversed
same,effect on stereotyped sniffing when flumazenil is added,"[2]; 30 mg/kg p.o. + flumazenil 5 mg/kg i.p., first trial and sum of both trials",significantly reversed
same,effect on stereotyped sniffing when flumazenil is added,[2]; [4],distinctly antagonised
same,reducing effect on ataxia when flumazenil is added,[2]; [4],reversed
same,reversing effect of flumazenil on the ataxia effect,"[2]; 30 mg/kg p.o. + flumazenil 5 mg/kg i.p., sum of both trials",marginal
same,effect on other stereotypies when flumazenil is added,[2]; first trial,rather amplified
same,effect on other stereotypies when flumazenil is added,[2]; second trial,distinctly reversed
same,effect on other stereotypies when flumazenil is added,[2]; sum of both trials,no change
same,"MK-801-induced increase of the distance travelled, whole time curve","[2]; 30 mg/kg p.o., both tests and sum",significantly reduced
same,MK-801-induced stereotyped sniffing,"[2]; 30 mg/kg p.o., discrete trials and sum of both trials",significantly reversed
same,MK-801-induced other stereotypies,"[2]; 30 mg/kg p.o., first trial",slightly reduced
same,MK-801-induced ataxia,"[2]; 30 mg/kg p.o., first trial (November 2003)",hardly affected
same,"activity induced by MK-801, whole time curve","[2]; 30 mg/kg p.o., first trial and sum of both tests",significantly reduced
same,"activity induced by MK-801, whole time curve","[2]; 30 mg/kg p.o., second trial",distinctly reduced
same,MK-801-induced ataxia,"[2]; 30 mg/kg p.o., second trial (January 2004)",more pronounced but still not significant
same,MK-801-induced other stereotypies,"[2]; 30 mg/kg p.o., second trial and sum of both trials",significantly reversed
same,MK-801-induced ataxia,"[2]; 30 mg/kg p.o., sum of both trials",only a slight reduction
